# Data published in patent publication US20030220524A1, “Sulfur containing compounds” (priority 2000, published 2003).
# Experiments:
# B1 leukemic cell line = experiment: TUNEL, flow cytometry; assay type: cell-based, human; conditions: 48 h
# Protocol: (§1) Adherent cell lines were plated at 35×10^4 cells/60 cm^2 dish the day before exposure to compound. Suspension cells were seeded at 25×10^4 cells/mL in a 6 well dish (Falcon) the day of exposure to compound. Mononucleated, T-cell depleted normal bone marrow cells were seeded at 50×10^4 cells/mL in a 6 well dish the day of exposure to compound. Cells were exposed to solvent control or approximate MTT50 and MTT30 concentrations of the compound. After 48 h of exposure to the compound, cells were harvested and fixed with a final concentration of 4% formaldehyde. Fixed cells were stored at −20° C. in 70% ethanol for no more than 5 days. Approximately 10^5 cells were pelleted and labeled with 0.02 mM Biotin-dUTP and 12.5 U TdT enzyme in a 1× reaction buffer (200 mM potassium cacodylate, 25 mM Tris-HCl, 25 μg/mL bovine serum albumin, pH 6.6), 2.5 mM CoCl2 and 0.01 mM dTTP (Roche Molecular Biochemicals, Laval, QC, Canada) for 45 min at 37° C. Samples were washed and incubated in 200 μL of 1:1000 fluorescein isothiocyanate (FITC)-conjugated avidin (Sigma) in 4×SSC, 5% skim milk powder and 0.05% Tween-20 (Sigma). Following 1 h of mixing at room temperature, the samples were washed and resuspended in 500 μL of D-PBS containing 2.5 μg/mL DNase-free RNase (Boehringer Mannheim) and 10 μg/mL PI. Following a 30 min incubation at room temperature, cells were analyzed using a XL-MCL flow cytometer (Coulter Corporation, Miami, Fla.) and a FACScalibar cytometer (Becton Dickinson, San Jose, Calif.). Profiles shown are representative of one experiment.
# as §1, with “? s” for “Cells”, “appr ? nate” for “approximate”, “of” for “of the”, “Pl.” for “PI.”
# NB-4 leukemic cell line = experiment: TUNEL, flow cytometry; assay type: cell-based, human; conditions: 48 h
# Protocol: as §1
# as §1, with “? s” for “Cells”, “appr ? nate” for “approximate”, “of” for “of the”, “Pl.” for “PI.”
# G2 leukemic cell line = experiment: TUNEL, flow cytometry; assay type: cell-based, human; conditions: 48 h
# Protocol: as §1
# as §1, with “? s” for “Cells”, “appr ? nate” for “approximate”, “of” for “of the”, “Pl.” for “PI.”
# [1] = test system: WI38 non-transformed diploid fibroblasts; experiment: TUNEL, flow cytometry; assay type: cell-based, human; conditions: 48 h
# Protocol: as §1
# as §1, with “? s” for “Cells”, “appr ? nate” for “approximate”, “of” for “of the”, “Pl.” for “PI.”
# mammalian cells = experiment: Antiproliferative activity, summary grouping on the basis of MTT assays; assay type: cell-based; conditions: in words
# Protocol: Adherent cells were seeded at 67×10^3 cells/mL in a 96 well plate (Falcon, Mississauga, Ontario) the day prior to exposure to compound. Suspension cells were seeded at 27×10^4 cells/mL in a 96 well plate the day of exposure to compound. Mononucleated, T-cell depleted normal bone marrow cells were seeded at 67×10^4 cells/mL in a 96 well plate the day of exposure to compound. Compounds and solvent control were added to cells and assayed in triplicate or sextuplet. Following 48 h of incubation at 37° C. with 5% CO2, 40 μL of a 5 mg/mL solution of 3-[4,5-dimethylthiazol-2-yl]-2,5-diphenyltetrazolium bromide (MTT) substrate (Sigma) in Dulbecco's phosphate-buffered saline (D-PBS) was added. After 4 h of incubation at 37° C. with 5% CO2, the resulting violet formazan precipitate was solubilized by the addition of 80 μL of a 0.01 M HCI, 10% sodium dodecyl sulfate (SDS; Sigma) solution overnight at 37° C. with 5% CO2. The plates were then analyzed using the BioRad Benchmark Microplate Reader (BioRad Laboratories, Hercules, Calif.) at 570 nm to determine the optical density of the samples. MTT data was analyzed using Prism 3.0 (GraphPad Software, Inc., San Diego, Calif.) by the Chou-Talalay method. MTT graphs shown are a representative experiment.
# Initially, the efficacy of ten synthetic OSCs was explored for their antiproliferative activity against mammalian cells. […]
compound,measurement,setting,value
"CSSCC(=O)c1ccccc1 [Compound P, phenacyl methyl disulphide]",% TUNEL +ve,B1 leukemic cell line; dose 50 uM,39%
same,% TUNEL +ve,B1 leukemic cell line; dose 100 uM,67%
same,% TUNEL +ve,NB-4 leukemic cell line; dose 50 uM,24%
same,% TUNEL +ve,NB-4 leukemic cell line; dose 100 uM,0.2%
same,% TUNEL +ve,G2 leukemic cell line; dose 50 uM,17%
same,% TUNEL +ve,G2 leukemic cell line; dose 100 uM,53%
same,% TUNEL +ve,[1]; dose 50 uM,0.70%
same,% TUNEL +ve,[1]; dose 100 uM,1.7%
"CS(C)(=O)=O [Compound A, dimethyl sulfone]",Antiproliferative activity (grouping in Summary of Results and Notes to the data sets),mammalian cells,No anti-proliferative properties
"CSSCCS(C)(=O)=O [F, 2,3,6-trithiaheptane 6,6,-dioxide]",Antiproliferative activity (grouping in Summary of Results and Notes to the data sets),mammalian cells,Anti-proliferative Activity
"CSCSSC [Compound N, 2,3,5-trithiahexane]",% TUNEL +ve,B1 leukemic cell line; dose 50 uM,49%
same,% TUNEL +ve,B1 leukemic cell line; dose 100 uM,44%
same,% TUNEL +ve,NB-4 leukemic cell line; dose 50 uM,17%
same,% TUNEL +ve,NB-4 leukemic cell line; dose 100 uM,19%
same,% TUNEL +ve,G2 leukemic cell line; dose 50 uM,18%
same,% TUNEL +ve,G2 leukemic cell line; dose 100 uM,19%
same,% TUNEL +ve,[1]; dose 50 uM,0.7%
same,% TUNEL +ve,[1]; dose 100 uM,2%
"CCC(=O)OCSSc1ccccc1 [Compound Q, 1-phenyl-1,2-dithiapropyl propionate]",% TUNEL +ve,B1 leukemic cell line; dose 25 uM,32%
same,% TUNEL +ve,B1 leukemic cell line; dose 50 uM,78%
same,% TUNEL +ve,NB-4 leukemic cell line; dose 50 uM,16%
same,% TUNEL +ve,G2 leukemic cell line; dose 25 uM,23%
same,% TUNEL +ve,G2 leukemic cell line; dose 50 uM,58%
same,% TUNEL +ve,[1]; dose 25 uM,4%
same,% TUNEL +ve,[1]; dose 50 uM,0.2%
